For the assay, the target named is T1, GPR139 (Homo sapiens, UniProt Q6DWJ6).
T1 sequence (Q6DWJ6 1-353): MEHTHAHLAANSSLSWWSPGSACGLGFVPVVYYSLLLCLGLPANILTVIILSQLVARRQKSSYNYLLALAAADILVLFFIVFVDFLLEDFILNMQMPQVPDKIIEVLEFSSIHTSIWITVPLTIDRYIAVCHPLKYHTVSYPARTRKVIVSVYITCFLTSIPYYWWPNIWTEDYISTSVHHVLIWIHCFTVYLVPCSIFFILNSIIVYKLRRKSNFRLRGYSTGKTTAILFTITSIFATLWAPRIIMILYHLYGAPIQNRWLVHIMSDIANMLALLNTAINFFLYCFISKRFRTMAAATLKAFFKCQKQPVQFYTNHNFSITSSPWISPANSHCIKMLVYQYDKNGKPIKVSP
Description: Ca2+ mobilization assay, agonist mode, stable GPR139-CHOk1 cell line. The following applies: for Emax: normalized to Lundbeck Cmp 1a, read-out: Emax (%) Ca2+. Format: cell-based. Summed up:
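Agonist activity of compounds is assessed in stably transfected CHO-K1 cells using the calcium dye Fluo-4 at 37 °C in HEPES-buffered HBSS (pH 7.4). Efficacy is expressed relative to the reference agonist Lundbeck Cmp 1a, set as 100%.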
A general note: Calcium assays in cells follow changes in intracellular calcium, usually with a dye or a luminescent sensor.

Setting [1] is: 0.1 µM, individual replicates (Supplementary Figure 3).
Where [2] appears, read: 1 µM, individual replicates (Supplementary Figure 3).
Where [3] appears, read: 10 µM, individual replicates (Supplementary Figure 3).
The mark [4] stands for this setting: Agonist mode, individual replicates (Supplementary Figure 1).
The mark [5] stands for this setting: Supplementary Table 2, mean ± SEM.
Where [6] appears, read: log [Compound] M -4.5, replicate experiments.
Setting [7] is: log [Compound] M -5.0, replicate experiments.
Setting [8] is: log [Compound] M -5.5, replicate experiments.
Setting [9] is: log [Compound] M -6.0, replicate experiments.
Setting [10] is: log [Compound] M -6.5, replicate experiments.
Setting [11] is: log [Compound] M -7.0, replicate experiments.
The mark [12] stands for this setting: log [Compound] M -7.5, replicate experiments.
The mark [13] stands for this setting: log [Compound] M -8.0, replicate experiments.
Where [14] appears, read: log [Compound] M -8.5, replicate experiments.
Setting [15] is: log [Compound] M -9.0, replicate experiments.
The mark [16] stands for this setting: primary screen, 10 µM compound, agonist mode, three columns = independent experiments.

Several values for one entry are separate records, joined by “and”; a condition that tells them apart may be missing. Equal values may be shown once. Read-outs that look alike come from different tables or passages of the source.

For `COC(=O)c1cc(NC(=O)NC(C)c2cccc(F)c2F)ccc1C` (stereo not shown) [Compound 2, COC(=O)C=1C=C(NC(=O)NC(C)C=2C=CC=C(F)C2F)C=CC1C], the “Ca2+ signal (% of Cmp 1a)” value reads like this: under setting [1], 18.1 % of Cmp 1a and 15.9 % of Cmp 1a; under setting [2], 65.0 % of Cmp 1a and 52.8 % of Cmp 1a; under setting [3], 86.8 % of Cmp 1a and 54.5 % of Cmp 1a; under setting [4], 81 % of Cmp 1a and 65 % of Cmp 1a and 84 % of Cmp 1a; under setting [6], 74 % of Cmp 1a and 103 % of Cmp 1a and 90 % of Cmp 1a; under setting [7], 60 % of Cmp 1a and 92 % of Cmp 1a and 78 % of Cmp 1a. Also, the “Ca2+ signal (% of Cmp 1a)” value under setting [8] was 65 % of Cmp 1a and 88 % of Cmp 1a and 71 % of Cmp 1a; the “Ca2+ signal (% of Cmp 1a)” value under setting [9] was 66 % of Cmp 1a and 74 % of Cmp 1a and 68 % of Cmp 1a; the “Ca2+ signal (% of Cmp 1a)” value under setting [10] was 25 % of Cmp 1a and 58 % of Cmp 1a and 38 % of Cmp 1a; the “Ca2+ signal (% of Cmp 1a)” value under setting [11] is 16 % of Cmp 1a and 20 % of Cmp 1a and 28 % of Cmp 1a; the “Ca2+ signal (% of Cmp 1a)” value under setting [12] is -9 % of Cmp 1a and -8 % of Cmp 1a and 6 % of Cmp 1a; the “Ca2+ signal (% of Cmp 1a)” value under setting [13] was -12 % of Cmp 1a and -7 % of Cmp 1a and 2.84 % of Cmp 1a. Further, the “Ca2+ signal (% of Cmp 1a)” value runs as follows: under setting [14], -1.88 % of Cmp 1a and 9 % of Cmp 1a and 21 % of Cmp 1a; under setting [15], -14 % of Cmp 1a and 6 % of Cmp 1a and 7 % of Cmp 1a; under setting [16], 81 % of Cmp 1a and 65 % of Cmp 1a and 84 % of Cmp 1a. The EC50 (GPR139-CHOk1, read-out: EC50, Ca2+ mobilization) is 320 nM. Further, under setting [5], the Emax (as a rule, the maximal effect, on the per cent scale that the assay sets) stood at 83 ± 6%.
Regarding `Cc1noc(C(C)NC(=O)Nc2cccc(-c3ccccc3)c2)n1` (stereo not shown) [Compound 3, CC(NC(=O)NC=1C=CC=C(C1)C=2C=CC=CC2)C3=NC(C)=NO3], the “Ca2+ signal (% of Cmp 1a)” value under setting [1] was 5.3 % of Cmp 1a and 10.2 % of Cmp 1a; the “Ca2+ signal (% of Cmp 1a)” value under setting [2] is 18.7 % of Cmp 1a and 1.8 % of Cmp 1a; the “Ca2+ signal (% of Cmp 1a)” value under setting [3] is listed as 46.3 % of Cmp 1a; the “Ca2+ signal (% of Cmp 1a)” value under setting [4] was 55 % of Cmp 1a and 56 % of Cmp 1a and 62 % of Cmp 1a; the “Ca2+ signal (% of Cmp 1a)” value under setting [6] was 57 % of Cmp 1a and 72 % of Cmp 1a and 70 % of Cmp 1a; the “Ca2+ signal (% of Cmp 1a)” value under setting [7] was 55 % of Cmp 1a and 59 % of Cmp 1a and 65 % of Cmp 1a. The “Ca2+ signal (% of Cmp 1a)” value under setting [8] was 25 % of Cmp 1a and 54 % of Cmp 1a and 37 % of Cmp 1a; the “Ca2+ signal (% of Cmp 1a)” value under setting [9] is 11 % of Cmp 1a and 34 % of Cmp 1a and 21 % of Cmp 1a; the “Ca2+ signal (% of Cmp 1a)” value under setting [10] was -1.52 % of Cmp 1a and 4.42 % of Cmp 1a and 16 % of Cmp 1a; the “Ca2+ signal (% of Cmp 1a)” value under setting [11] is -7 % of Cmp 1a and -0.413 % of Cmp 1a and 6 % of Cmp 1a; the “Ca2+ signal (% of Cmp 1a)” value under setting [12] is -4.33 % of Cmp 1a and 4 % of Cmp 1a and 8 % of Cmp 1a; the “Ca2+ signal (% of Cmp 1a)” value under setting [13] was -1.83 % of Cmp 1a and -3.24 % of Cmp 1a and 5 % of Cmp 1a. The “Ca2+ signal (% of Cmp 1a)” value under setting [14] is -10 % of Cmp 1a and -2 % of Cmp 1a and 4.52 % of Cmp 1a; the “Ca2+ signal (% of Cmp 1a)” value under setting [15] is 0.621 % of Cmp 1a and -0.857 % of Cmp 1a and 2.53 % of Cmp 1a; the “Ca2+ signal (% of Cmp 1a)” value under setting [16] is 55 % of Cmp 1a and 56 % of Cmp 1a and 62 % of Cmp 1a. Moreover, the EC50 (Supplementary Table 2, mean ± SEM, read-out: pEC50 Ca2+ (converted)) is 2510 nM. Besides, the Emax under setting [5] was found to be 70 ± 3%.

The values above are taken from paper PMC12775434, “Ultra-large virtual screening unveils potent agonists of the neuromodulatory orphan receptor GPR139” (Nature Communications, 2025).
